Test results as given in BindingDB's records for patent US20250019381 (Cardurion Pharmaceuticals, 2025).

Biological target: Dual specificity calcium/calmodulin-dependent 3',5'-cyclic nucleotide phosphodiesterase 1A (Human, UniProt P54750)
Assay: Enzyme immunoassay

Dual specificity calcium/calmodulin-dependent 3',5'-cyclic nucleotide phosphodiesterase 1A, sequence (P54750 whole entry): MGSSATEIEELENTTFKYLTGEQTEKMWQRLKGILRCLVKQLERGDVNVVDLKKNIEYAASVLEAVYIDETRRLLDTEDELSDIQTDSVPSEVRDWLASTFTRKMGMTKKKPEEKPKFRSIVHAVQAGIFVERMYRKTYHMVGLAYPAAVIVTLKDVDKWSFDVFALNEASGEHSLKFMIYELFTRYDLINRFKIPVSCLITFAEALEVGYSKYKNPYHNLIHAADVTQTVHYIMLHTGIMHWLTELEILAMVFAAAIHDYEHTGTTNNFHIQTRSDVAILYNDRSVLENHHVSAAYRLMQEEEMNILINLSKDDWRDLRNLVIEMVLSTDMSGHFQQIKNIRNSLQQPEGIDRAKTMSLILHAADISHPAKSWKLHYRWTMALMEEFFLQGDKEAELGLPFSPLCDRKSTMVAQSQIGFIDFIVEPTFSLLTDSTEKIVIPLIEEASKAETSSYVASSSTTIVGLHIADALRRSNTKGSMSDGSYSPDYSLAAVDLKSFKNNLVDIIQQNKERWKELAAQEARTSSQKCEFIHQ

- IC50: 5.28 µM
Compound: O=c1[nH]c(CN2CC(Oc3cccnc3)C2)cn2c(C3CCOCC3)ncc12 [US20250019381, Compound (P2)]
